Assay results published in ChEMBL document CHEMBL1151636, “Atractyloside, toxic compound from Wedelia glauca” (J Nat Prod, 1984).

Tested on: Mus musculus
Assay: Toxicity in ip dosed mouse assessed as respiratory arrest
Type: organism-based
Settings: in vivo

Structure (SMILES): C=C1[C@@H]2CCC3[C@@](CC[C@@H]4[C@H](C(=O)O)C[C@@H](O[C@@H]5O[C@H](CO)[C@@H](OS(=O)(=O)[O-])[C@H](OS(=O)(=O)[O-])[C@H]5OC(=O)CC(C)C)C[C@@]34C)(C2)[C@@H]1O.[K+].[K+] (stereo partly specified) [ATRACTYLOSIDE]
- Activity: Toxic
